Data as given in publication PMC8413904 (Pharmacology Research & Perspectives, 2021).

Tests used:
GluN1/2D = GluN1/2D (UniProt O15399+P35439); assay: TEVC electrophysiology dose–response in xenopus oocytes; format: cell-based; parameters: host or cells: Xenopus oocytes (cRNA injection)
Source text: (§3) NMDAR constructs: cDNA encoding the NMDAR1a subunit (GluN1a) was obtained from Dr. Nakanishi. cDNA encoding the GluN2B (pci_sepGluN2B) was developed initially in the Malinow lab[36] and purchased from Addgene (cat# 23998). cDNA encoding the GluN2C and GluN2D were purchased from GenScript. Mutated GluN1, 2A and 2B cDNA constructs capable of assembling as GluN1/2A/2B triheteromeric (1/2AB) receptors[37] were obtained from Dr. Paoletti (Laboratoire de Neurobiologie, CNRS). […] Plasmids were linearized with NotI (GluN1a) or Avrll (GluN2B), or BstB1 (GluN2C and GluN2D) and transcribed in vitro with T7 (GluN1a, GluN1/2A, GluN2B, GluN2C, & GluN2D) RNA polymerase using the mMessage mMachine transcription kits (Invitrogen by Thermo Fisher Scientific).
(§4) Stage IV frog oocytes were obtained from Xenopus‐I. NMDAR subunit cRNAs were suspended in nuclease‐free sterile water. GluN1A, GluN2B, GluN2C, GluN2D, and GluN1/2A/2B cRNAs were mixed in a ratio of 1:1–3. 50 nl of the final cRNA mixture was microinjected (40–70 ng total) into the oocyte cytoplasm. Oocytes were incubated in ND‐96 solution at 18^◦C prior to electrophysiological recordings (1–3 days).
(§5) Electrophysiological responses were measured using a standard two‐microelectrode voltage‐clamp workstation [Warner Instruments (Hamden, Connecticut) model OC‐725C] designed to provide a fast clamp of large cells. The recording buffer contained 116 mM NaCl, 2 mM KCl, 0.3 mM BaCl2, and 5 mM HEPES, pH 7.4. Response magnitude was determined in xenopus oocytes expressing different NMDAR subunits (GluN1/2A, 1/2B, 1/2C, 1/2D, and 1/2A/2B) by the steady plateau response elicited by bath application of different agonist concentrations. […] Response amplitudes for functional NMDARs were generally between 0.1 and 2 μA. […] Dose–response relationships were fit to an appropriate curve‐fitting equation using GraphPad Prism‐7. Nonlinear regression was used to calculate EC50 and/or percentage maximal response. […] Statistical significance was determined at the overall alpha level .05, using appropriate statistical methods as described in each figure captions.

[1] = molecular target: GluN1/2A/2B triheteromeric (1/2AB) receptors (Rattus norvegicus, UniProt P35439+Q00959+Q01097); assay: as above; conditions: 100 µM CNS4, −60 mV, average ± SEM
Source text: as §3, §4, §5

[2] = system: cultured rat brain cortical neurons; assay: Dynamic calcium assay (Fluo‐8); format: cell-based
Experimental: (§1) All animal experimental procedures and housing have been approved by the Institutional Animal Care and Use Committee (IACUC) protocol #18‐015 of Virginia Tech. Embryonic day 18 (E18) rat brain tissue samples were obtained from adult pregnant SD rats. Rat brain primary cortical, striatal, and cerebellar neurons were cultured on poly‐d‐lysine coated 96‐well plates for 14 days in vitro (DIV14) before using for the experiments. Primary rat neuron culture was performed as previously published.[44] Briefly, each well of a 96 well plate was loaded with 50 000 cells and grown in 200 µl neurobasal media supplemented with B27, glutamax, penicillin, streptomycin. One hundred microliters of media was replaced with fresh media once in 4 days. Eight to thirteen fetus were obtained from each pregnant rat. Brain tissue from these fetus were pooled to obtain the neurons. Cortical, striatal, and cerebellar neuron assays were carried out at different time points.
Dynamic calcium assay was carried out, using Fluo‐8 no‐wash kit (abcam, ab112129), as per the manufacturer's instructions with minor modifications to fit with experimental necessities. On DIV14, all 200 μl of media was removed and replaced it with 100 μl of HBSS and 100 μl of Fluo‐8 dye loading solution. The plates were incubated at 37°C for 30 min and at room temperature for 30 min. […] Costar 96‐well clear bottom black side plates were read from the bottom, nine times, with 60 s intervals between each read. Temperature was set at 37°C and reading speed was 100 ms.

[3] = system: cultured rat brain cerebellar neurons; assay: Dynamic calcium assay (Fluo‐8); format: cell-based; conditions: 100 µM CNS4 plus 300 µM NMDA; p < .01 vs 300 µM NMDA (12810)
Experimental: as §1
(§2) Dynamic calcium assay was carried out, using Fluo‐8 no‐wash kit (abcam, ab112129), as per the manufacturer's instructions with minor modifications to fit with experimental necessities. On DIV14, all 200 μl of media was removed and replaced it with 100 μl of HBSS and 100 μl of Fluo‐8 dye loading solution. The plates were incubated at 37°C for 30 min and at room temperature for 30 min. A volume of 100 µL of test chemicals (3× of desired final concentration) was added to the plates immediately before running the calcium flux assay and read the fluorescence intensity at 490/525 nm (ex/em) using Synergy microplate reader, BioTek, VT. Costar 96‐well clear bottom black side plates were read from the bottom, nine times, with 60 s intervals between each read. Temperature was set at 37°C and reading speed was 100 ms.

[4] = system: cultured rat brain striatal neurons; assay: Dynamic calcium assay (Fluo‐8); format: cell-based
Experimental: as §1, §2

Sequence of GluN1/2A/2B triheteromeric (1/2AB) receptors (Q01097 27-1482, other chains not shown): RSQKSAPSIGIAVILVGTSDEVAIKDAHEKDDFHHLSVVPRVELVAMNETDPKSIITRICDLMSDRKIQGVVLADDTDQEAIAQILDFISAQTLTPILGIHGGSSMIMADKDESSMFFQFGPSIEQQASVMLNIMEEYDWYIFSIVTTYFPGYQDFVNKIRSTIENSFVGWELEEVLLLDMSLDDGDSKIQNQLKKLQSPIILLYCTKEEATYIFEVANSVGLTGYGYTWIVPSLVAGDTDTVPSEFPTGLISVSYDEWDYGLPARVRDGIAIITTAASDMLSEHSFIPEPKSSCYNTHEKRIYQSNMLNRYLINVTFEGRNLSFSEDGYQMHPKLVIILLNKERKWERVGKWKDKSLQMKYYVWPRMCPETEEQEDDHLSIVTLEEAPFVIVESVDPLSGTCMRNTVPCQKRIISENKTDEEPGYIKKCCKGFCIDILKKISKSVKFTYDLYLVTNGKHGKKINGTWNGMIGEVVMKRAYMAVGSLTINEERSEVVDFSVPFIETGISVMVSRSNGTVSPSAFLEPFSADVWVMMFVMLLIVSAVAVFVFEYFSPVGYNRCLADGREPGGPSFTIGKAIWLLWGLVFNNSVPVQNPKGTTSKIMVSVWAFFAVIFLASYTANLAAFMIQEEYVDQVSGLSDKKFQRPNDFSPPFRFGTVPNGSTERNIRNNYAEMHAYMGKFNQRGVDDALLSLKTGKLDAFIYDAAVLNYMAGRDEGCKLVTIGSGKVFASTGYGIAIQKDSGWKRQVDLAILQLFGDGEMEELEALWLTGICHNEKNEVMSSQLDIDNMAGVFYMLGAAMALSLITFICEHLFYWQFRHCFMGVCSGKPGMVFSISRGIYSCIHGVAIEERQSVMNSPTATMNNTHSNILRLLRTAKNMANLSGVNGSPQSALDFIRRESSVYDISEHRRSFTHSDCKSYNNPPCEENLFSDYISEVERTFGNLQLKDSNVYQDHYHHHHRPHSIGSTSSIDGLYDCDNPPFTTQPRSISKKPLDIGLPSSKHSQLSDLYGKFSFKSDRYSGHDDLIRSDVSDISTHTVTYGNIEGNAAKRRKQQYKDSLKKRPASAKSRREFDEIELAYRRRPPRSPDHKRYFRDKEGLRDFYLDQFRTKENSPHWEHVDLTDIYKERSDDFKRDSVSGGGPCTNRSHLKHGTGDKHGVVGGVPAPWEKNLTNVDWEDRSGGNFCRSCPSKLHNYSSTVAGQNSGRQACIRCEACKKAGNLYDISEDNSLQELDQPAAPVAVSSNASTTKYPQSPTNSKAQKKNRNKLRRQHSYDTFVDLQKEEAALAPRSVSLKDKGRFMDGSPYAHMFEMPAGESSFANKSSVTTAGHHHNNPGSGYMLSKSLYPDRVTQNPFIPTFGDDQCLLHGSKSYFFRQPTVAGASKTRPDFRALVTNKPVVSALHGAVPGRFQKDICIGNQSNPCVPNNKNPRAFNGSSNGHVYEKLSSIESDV
Sequence of GluN1/2A/2B triheteromeric (1/2AB) receptors (Q00959 23-1464, other chains not shown): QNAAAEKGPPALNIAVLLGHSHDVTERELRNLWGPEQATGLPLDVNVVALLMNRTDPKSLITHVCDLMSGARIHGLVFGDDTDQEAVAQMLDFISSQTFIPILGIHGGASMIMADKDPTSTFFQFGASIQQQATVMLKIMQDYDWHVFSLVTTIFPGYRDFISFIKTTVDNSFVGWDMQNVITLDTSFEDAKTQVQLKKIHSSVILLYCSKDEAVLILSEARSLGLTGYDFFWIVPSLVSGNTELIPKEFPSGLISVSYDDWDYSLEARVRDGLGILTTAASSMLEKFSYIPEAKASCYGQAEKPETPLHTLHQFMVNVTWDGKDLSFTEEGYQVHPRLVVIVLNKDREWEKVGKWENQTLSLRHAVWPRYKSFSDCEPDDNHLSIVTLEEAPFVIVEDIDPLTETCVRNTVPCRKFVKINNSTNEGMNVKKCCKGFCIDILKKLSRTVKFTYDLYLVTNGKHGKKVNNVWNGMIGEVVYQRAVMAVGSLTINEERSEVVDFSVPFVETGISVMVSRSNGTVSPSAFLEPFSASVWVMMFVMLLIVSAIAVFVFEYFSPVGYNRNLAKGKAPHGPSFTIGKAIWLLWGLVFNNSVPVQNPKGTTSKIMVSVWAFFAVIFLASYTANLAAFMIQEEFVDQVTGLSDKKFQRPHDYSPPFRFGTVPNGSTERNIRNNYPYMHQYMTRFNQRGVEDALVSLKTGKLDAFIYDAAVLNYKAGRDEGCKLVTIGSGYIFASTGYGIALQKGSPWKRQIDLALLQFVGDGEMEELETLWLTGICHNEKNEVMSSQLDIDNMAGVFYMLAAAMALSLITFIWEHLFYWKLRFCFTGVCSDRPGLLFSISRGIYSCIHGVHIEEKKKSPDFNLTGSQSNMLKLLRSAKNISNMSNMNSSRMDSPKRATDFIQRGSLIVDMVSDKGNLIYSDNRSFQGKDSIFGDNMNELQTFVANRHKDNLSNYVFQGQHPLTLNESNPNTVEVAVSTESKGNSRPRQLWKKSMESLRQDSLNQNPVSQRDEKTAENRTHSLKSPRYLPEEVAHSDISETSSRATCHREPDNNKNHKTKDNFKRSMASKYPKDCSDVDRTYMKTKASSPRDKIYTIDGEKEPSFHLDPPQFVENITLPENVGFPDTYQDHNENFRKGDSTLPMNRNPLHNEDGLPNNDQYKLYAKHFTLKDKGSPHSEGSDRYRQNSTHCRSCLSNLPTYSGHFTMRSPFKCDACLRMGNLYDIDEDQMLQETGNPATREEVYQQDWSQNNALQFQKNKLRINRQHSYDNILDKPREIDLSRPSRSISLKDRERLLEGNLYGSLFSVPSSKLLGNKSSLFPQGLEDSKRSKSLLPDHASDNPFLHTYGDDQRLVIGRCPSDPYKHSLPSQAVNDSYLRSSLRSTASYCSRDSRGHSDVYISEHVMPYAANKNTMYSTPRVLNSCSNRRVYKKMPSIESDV
Sequence of GluN1/2D (O15399 28-1336, other chains not shown): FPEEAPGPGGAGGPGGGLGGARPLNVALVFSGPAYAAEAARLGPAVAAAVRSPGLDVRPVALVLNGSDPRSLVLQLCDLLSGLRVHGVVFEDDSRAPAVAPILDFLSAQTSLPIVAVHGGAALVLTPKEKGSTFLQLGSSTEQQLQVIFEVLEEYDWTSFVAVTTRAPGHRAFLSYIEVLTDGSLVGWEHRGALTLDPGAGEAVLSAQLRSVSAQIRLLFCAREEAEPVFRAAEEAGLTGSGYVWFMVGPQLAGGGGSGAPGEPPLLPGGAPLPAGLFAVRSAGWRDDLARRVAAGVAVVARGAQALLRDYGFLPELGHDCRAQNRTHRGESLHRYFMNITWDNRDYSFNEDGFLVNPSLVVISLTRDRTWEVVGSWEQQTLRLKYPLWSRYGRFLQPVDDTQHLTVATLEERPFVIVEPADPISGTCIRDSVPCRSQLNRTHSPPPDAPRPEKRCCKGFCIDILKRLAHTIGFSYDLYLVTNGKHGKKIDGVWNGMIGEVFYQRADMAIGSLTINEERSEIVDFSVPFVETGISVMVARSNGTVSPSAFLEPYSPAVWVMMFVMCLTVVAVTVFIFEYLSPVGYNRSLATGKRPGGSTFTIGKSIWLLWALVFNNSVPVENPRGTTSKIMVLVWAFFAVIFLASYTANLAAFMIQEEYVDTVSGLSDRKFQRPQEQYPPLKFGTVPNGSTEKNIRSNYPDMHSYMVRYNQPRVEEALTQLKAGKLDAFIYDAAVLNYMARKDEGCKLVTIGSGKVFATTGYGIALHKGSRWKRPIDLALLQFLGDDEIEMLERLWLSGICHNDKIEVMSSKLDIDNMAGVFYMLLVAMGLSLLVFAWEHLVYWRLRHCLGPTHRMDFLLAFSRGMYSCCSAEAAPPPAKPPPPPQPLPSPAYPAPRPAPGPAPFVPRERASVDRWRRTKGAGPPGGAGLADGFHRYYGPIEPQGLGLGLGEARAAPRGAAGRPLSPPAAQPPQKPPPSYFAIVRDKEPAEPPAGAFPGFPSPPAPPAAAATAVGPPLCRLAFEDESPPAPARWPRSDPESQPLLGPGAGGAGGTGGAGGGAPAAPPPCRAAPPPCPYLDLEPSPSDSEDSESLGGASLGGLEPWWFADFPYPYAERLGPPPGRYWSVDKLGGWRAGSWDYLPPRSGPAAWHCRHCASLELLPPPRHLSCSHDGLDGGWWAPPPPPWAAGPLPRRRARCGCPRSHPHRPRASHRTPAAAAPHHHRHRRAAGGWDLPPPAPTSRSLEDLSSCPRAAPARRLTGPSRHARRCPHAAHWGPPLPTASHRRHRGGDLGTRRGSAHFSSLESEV

## O=C(NC(=S)N1CCCCC1c1cccnc1)c1ccc(F)cc1 (centres unmarked) [CNS4, 4‐fluoro‐N‐(2‐(pyridin‐3‐yl)piperidine‐1‐carbonothioyl)benzamide]
GluN1/2D; 100 µM CNS4, 0.3 µM glutamate + 100 µM glycine, −60 mV, average ± SEM
  current response, agonist alone induced maximum current normalized to 100%: 850.35% ± 133.9%
GluN1/2D; higher concentration (100 & 300 µM) of glutamate, almost no effect
  potentiation of receptor current: < 20%
[1]; 0.3 µM glutamate + 100 µM glycine
  current response, agonist alone induced maximum current normalized to 100%: 264.37% ± 16.9%
[1]; 100 µM glutamate + 100 µM glycine
  current response, agonist alone induced maximum current normalized to 100%: 122.65% ± 1.9%
[1]; 300 µM glutamate + 100 µM glycine
  current response, agonist alone induced maximum current normalized to 100%: 144.47% ± 11.8%
[2]; 100 µM CNS4 + 10 µM or higher concentrations of NMDA
  calcium signals compared to CNS4 alone treated cells: significantly increased calcium signals
[2]; 100 µM CNS4 + 100 µM GABA, p < .001 vs GABA alone (4196)
  Ca^2+ signal, mean rfu: 5124 rfu
[2]; 100 µM CNS4 + 100 µM acetylcholine, p < .0001 vs acetylcholine alone (6222)
  Ca^2+ signal, mean rfu: 8082 rfu
[2]; 100 µM CNS4 + 100 µM glutamate + 50 µM MK801, p = .7757 vs glutamate + MK801 (7997)
  Ca^2+ signal, mean rfu: 8359 rfu
[2]; 100 µM CNS4 in the presence of 0.3, 1, 3 µM NMDA
  Ca^2+ signal compared to background: did not increase Ca^2+ signal
[2]; 100 µM CNS4 in vehicle (HBSS) with no NMDA, Figure 6A
  Ca^2+ signal without NMDA: no significant Ca^2+ signal
[2]; 100 µM CNS4 plus 300 µM NMDA
  more Ca^2+ signal compared to plain 300 µM NMDA: 43%
[2]; 100 µM CNS4 plus 300 µM NMDA, p < .0001 vs 300 µM NMDA alone (26711)
  Ca^2+ signal, mean rfu: 38274 rfu
[3]
  Ca^2+ signal, rfu: 14423 rfu
[4]; 100 µM CNS4 in vehicle, no NMDA, background control 13964, p < .0001
  Ca^2+ signal, mean rfu: 6317 rfu
[4]; 100 µM CNS4 plus 300 µM NMDA
  CNS4 induced potentiation of Ca^2+ signal vs 300 µM NMDA: 86%
[4]; 100 µM CNS4 plus 300 µM NMDA, p < .0001 vs 300 µM NMDA alone (20964)
  Ca^2+ signal, mean rfu: 39001 rfu
